Test results reported in US12357603B2, “Acyl sulfonamides for treating cancer” (Bayer Aktiengesellschaft, priority 2019, dated 2025).
Where two headings read alike, the source gives them in different places.

Columns and labels:
CAMA-1 cells = assay: Proliferation assay CAMA-1 (Alamar Blue, 144 h); type: cell-based; details: Homo sapiens, CAMA1, breast adenocarcinoma, read-out: proliferation assays
Procedure: (§1) Assessment of the Anti-Proliferative Effect of Compounds in Different Cell Lines
(§2) To determine further cancer indications that respond to treatment with KAT6A or KAT6B3 inhibitors various cell lines carrying a KAT6A and/or KAT6B3 focal amplification or high KAT6A and/or KAT6B3 protein expression were used for proliferation assays with selected compounds.
(§3) 24 hours later, cells were treated with compounds (stock solution, 10 mM in DMSO) using the HP D300 Digital Dispenser in a concentration range of 2.0×10E-5 M to 2.0×10E-9 M in a single-dot curve with 9 dilutions and a DMSO concentration of 0.2%. Each sample was prepared as triplicate and rim wells were excluded. Plates were incubated at 37° C. and 5% CO2 for 144 h. Cell viability was measured by adding 10 μL of Alamar Blue Reagent (Invitrogen #DAL 1100) and plates were incubated for 2 h at 37° C. and 5% CO2. Fluorescence was measured at 590 nm wavelength with a Tecan Spark or Victor X3 MTP-Reader (PerkinElmer).

JMSU-1 cells = assay: Proliferation assay JMSU-1 (Alamar Blue, 144 h); type: cell-based; details: JMSU1, bladder carcinoma, read-out: proliferation assays
Procedure: as §1, §2, §3

MDA-MB-436 cells = assay: Proliferation assay MDA-MB-436, negative control cell line (Alamar Blue, 144 h); type: cell-based; details: arithmetic mean
How it was run: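 Viability read as Alamar Blue fluorescence (590 nm, 2 h) after 144 h compound exposure at 37 °C, 5% CO2. Cells seeded at 3000 per well in 2.5% FBS DMEM/Ham's F12, dosed a day later over 2.0×10E-9–2.0×10E-5 M in 9 steps with 0.2% DMSO, in triplicate.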

[1] = system: ESR1 transcription (luciferase signal in MVLN cells); assay: Repression of ESR1 transcription, luciferase reporter in MVLN cells; type: cell-based; details: inhibition of luciferase signal in MVLN cells, arithmetic mean
How it was run: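 Luminescence from an ER-driven Vitellogenin A2 element–luciferase reporter was measured after 24 h of treatment of MVLN cells, in duplicate wells. Alamar Blue (2 h, 530/590 nm) served as a cell-density control.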

DMS 53 cells = assay: Proliferation assay DMS 53 (Alamar Blue, 144 h); type: cell-based; details: Homo sapiens, DMS53, small cell lung cancer, read-out: proliferation assays
Procedure: as §1, §2, §3

LNCAP cells = assay: Proliferation assay LNCAP (Alamar Blue, 144 h); type: cell-based; details: Homo sapiens, prostate carcinoma, 10 nM R1881, read-out: proliferation assays
Procedure: as §1, §2, §3

[2] = molecular target: Recombinant human GST-tagged Kat6b protein (431-end); assay: Kat6b activity assay (TR-FRET, acetylation of biotinylated Histone-H4-derived peptide); type: biochemical; details: 30 mins at 22° C., read-out: KAT6B activity assay IC50 [mol/l] (arithmetic mean)
EFM-19 cells = assay: Proliferation assay EFM-19 (Alamar Blue, 144 h); type: cell-based; details: Homo sapiens, EFM19, breast carcinoma, read-out: proliferation assays
Procedure: as §1, §2, §3

DMS 114 cells = assay: Proliferation assay DMS 114 (Alamar Blue, 144 h); type: cell-based; details: Homo sapiens, DMS114, small cell lung cancer, read-out: proliferation assays
Procedure: as §1, §2, §3

COLO 684 cells = assay: Proliferation assay COLO 684 (Alamar Blue, 144 h); type: cell-based; details: Homo sapiens, COLO684, uterus adenocarcinoma, read-out: proliferation assays
Procedure: as §1, §2, §3

THP-1 cells = assay: Proliferation assay THP-1 (Alamar Blue, 144 h); type: cell-based; details: Homo sapiens, THP1, acute monocytic leukemia, read-out: proliferation assays
Procedure: as §1, §2, §3

T47D cells = assay: Proliferation assay T47D (Alamar Blue, 144 h); type: cell-based; details: Homo sapiens, breast ductal carcinoma, read-out: proliferation assays
Procedure: as §1, §2, §3

[3] = molecular target: Recombinant human His-tagged Kat6a protein (amino acids 194-810) (Homo sapiens (Human), UniProt Q92794); assay: Kat6a activity assay (TR-FRET, acetylation of biotinylated Histone-H4-derived peptide); type: biochemical; details: 60 mins at 22° C., read-out: KAT6A-DPF/HAT domain IC50 [mol/l] (arithmetic mean)
Chain of Recombinant human His-tagged Kat6a protein (amino acids 194-810) (Q92794 194-810): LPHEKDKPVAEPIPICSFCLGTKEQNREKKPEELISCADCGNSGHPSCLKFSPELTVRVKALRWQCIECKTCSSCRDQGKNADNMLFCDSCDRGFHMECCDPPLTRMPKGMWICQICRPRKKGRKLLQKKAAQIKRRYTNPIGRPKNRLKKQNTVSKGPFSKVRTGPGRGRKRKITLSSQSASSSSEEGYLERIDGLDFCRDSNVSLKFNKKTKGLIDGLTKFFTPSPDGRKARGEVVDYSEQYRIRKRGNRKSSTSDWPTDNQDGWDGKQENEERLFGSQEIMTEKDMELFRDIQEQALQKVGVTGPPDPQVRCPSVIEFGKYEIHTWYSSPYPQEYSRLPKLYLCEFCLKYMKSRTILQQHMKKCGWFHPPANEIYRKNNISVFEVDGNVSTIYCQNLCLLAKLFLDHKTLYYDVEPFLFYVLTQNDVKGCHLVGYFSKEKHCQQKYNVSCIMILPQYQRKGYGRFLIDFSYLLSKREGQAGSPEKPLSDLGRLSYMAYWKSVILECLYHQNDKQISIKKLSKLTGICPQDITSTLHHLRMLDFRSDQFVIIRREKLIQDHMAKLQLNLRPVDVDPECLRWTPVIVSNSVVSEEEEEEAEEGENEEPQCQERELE
How it was run: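 TR-FRET read-out of H4 K8 acetylation, using anti-acetyl-K8 antibody and streptavidin acceptor, after anacardic acid stop; IC50 from four-parameter regression normalized to DMSO. Reaction: recombinant human Kat6a aa 194-810 (insect-cell derived), 220 nM H4 1-24 peptide, 600 nM acetyl-CoA, pH 8, 22 °C, 60 min, compounds 0.01-20 μM.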

ZR-75-1 cells = assay: Proliferation assay ZR-75-1 (Alamar Blue, 144 h); type: cell-based; details: arithmetic mean, read-out: ZR75-1 proliferation assay, EC50 [M] (arithmetic mean)
How it was run: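 Alamar Blue fluorescence (590 nm, 2 h reagent step) measured viability after 144 h compound exposure at 37 °C, 5% CO2. Compounds spanned 2.0×10E-5 to 2.0×10E-9 M in 9 dilutions at 0.2% DMSO, in triplicate, added 24 h after plating 3000 cells/well in RPMI 1640 plus 2.5% FBS.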

LCLC-97TM1 cells = assay: Proliferation assay LCLC-97TM1 (Alamar Blue, 144 h); type: cell-based; details: Homo sapiens, LCLC97TM1, large cell lung carcinoma, read-out: proliferation assays
Procedure: as §1, §2, §3

Row | EC50 (MDA-MB-436 cells) [nM] | IC50 [1] [nM] | EC50 (LNCAP cells) [nM] | IC50 [2] [nM] | EC50 (COLO 684 cells) [nM] | EC50 (THP-1 cells) [nM] | EC50 (T47D cells) [nM] | IC50 [3] [nM] | EC50 (MDA-MB-436 cells; Homo sapiens, MDA-MB-436, 144 h) [nM] | IC50 ([1]; Homo sapiens, MVLN) [nM] | SMILES | EC50 (CAMA-1 cells) [nM] | EC50 (JMSU-1 cells) [nM] | EC50 (DMS 53 cells) [nM] | EC50 (EFM-19 cells) [nM] | EC50 (DMS 114 cells) [nM] | EC50 (ZR-75-1 cells) [M] | EC50 (LCLC-97TM1 cells) [nM] | EC50 (ZR-75-1 cells; Homo sapiens, ZR-75-1, 144 h) [M]
1 | > 20000 | 42.2 | 1630 | 66.9 | 156 | 95.8 | 170 | 84.6 |  |  | CCOc1ccccc1S(=O)(=O)NC(=O)c1cc2ccc(N(C)C)cc2o1 [Example 19, 6-(Dimethylamino)-N-(2-ethoxybenzene-1-sulfonyl)-1-benzofuran-2-carboxamide] | 268 | 70.6 | 130 | 105 | 136 | 5.96e-08 | 447 | 
2 |  |  | > 20000 | 99.2 | 92.9 |  | 197 | 79.3 | > 20000 | 98 | CCCOc1ccccc1S(=O)(=O)NC(=O)c1cc2ccc(N(C)C)cc2o1 [Example 23, 6-(Dimethylamino)-N-(2-propoxybenzene-1-sulfonyl)-1-benzofuran-2-carboxamide] | 415 |  | 367 | 155 | 205 |  | 157 | 2.34e-08
